According to patent US11547740B2, “Histone deacetylase (HDAC) inhibitor up-regulates car expression and targeted antigen intensity, increasing antitumor efficacy” (Baylor College of Medicine, priority 2013, dated 2023):

Assays:
Format in all cases: cell-based, human
[1] = tested on: MUC1 expression on CAR-MUC1-resistant CAPAN1 cells; test: MUC1 antigen expression by flow after decitabine treatment; settings: 1 μM, after 4 days of treatment; 3.5 before exposure
Protocol: One million CAPAN1 cells were fixed with 80% methanol and washed with 0.1% tween-PBS. 1 ug of anti-MUC1 antibody (Abcam Inc, Cambridge, Mass.) was added and incubated at RT for 30 mins. Then cultures were washed and incubated with 0.4 ug of a goat anti-mouse IgG APC antibody (BD Pharmingen, San Jose, Calif.) for 20 mins at 4° C. in the dark. Cells were then washed twice and analyzed.
CAPAN1 cells were culture in a T175 flask using complete IMDM media contained 1 μM 5-Aza-2′-deoxycytidine-decitabine-(Sigma-aldrich Inc., Saint Louis, Mo.) for 4 days, with fresh media+decitabine replenished daily. Subsequently, decitabine-treated CAPAN1 cells were rested for 2 days in complete IMDM, and then co-cultured with CAR-MUC1 T cells.
Finally, to determine whether CAR-T cell potency could be improved by combination with conventional epigenetic modulators, which can increase TAA expression by demethylating DNA, CAPAN1 cells were cultured that had been previously treated with CAR-MUC1 T cells and consequently expressed only low levels of the target antigen, with 1 μM of decitabine, a hypomethylating agent.

[2] = tested on: CAPAN1 cells initially treated with CAR-MUC1 T cells; test: 72 hr co-culture of decitabine-treated resistant CAPAN1 cells with CAR-MUC1 T cells; settings: 1 μM for 4 days, then 72 hr co-culture, E:T 5:1
Description: Data is reported as the mean±SD; n=4. (b) To determine whether decitabine exposure would upregulate MUC1 expression in this resistant population we evaluated antigen expression, by flow, on CAR-resistant cells (grey histogram) and those cultured in decitabine (black histogram). To next assess whether decitabine treatment resensitized CAPAN1 cells to CAR-MUC1 T cells we performed a 72-hr co-culture experiment using CAPAN1 cells initially treated with CAR-MUC1 T cells (c) then either left untreated or cultured with decitabine as targets (E:T 5:1). After 72-hours retreatment with CAR-MUC1 T cells, residual tumor cells were again quantified by flow. Data is reported as the mean±SD; n=2.
CAPAN1, 293T, 293T-MUC1-mOrange or 293T-PSCA-GFP, were used as targets. Briefly, GFP/CAPAN1 cells were mixed with either OKT3/CD28 blasts or CAR-modified T cells at a 1:5 ratio in the presence of IL2 (50 U/ml) in complete media. For our engineered tumor model, 293T-MUC1-mOrange and 293T-PSCA-GFP (or control 293T cells alone) were mixed at 1:1 ratio then OKT3/CD28 blasts or CAR-modified T cells were added to the mixture; 10:1 (T cells:tumor cell), in the presence of IL2 (50 U/ml) in complete media. After 72 hours all residual cells were collected, counted, stained and then analyzed by flow cytometry (Gallios; Beckman Coulter Inc., Brea, Calif.). […]

[3] = tested on: CAR-MUC1 expression on effector T cells; test: CAR expression on modified T cells cultured with decitabine; settings: after one day and several days
Protocol: T cells were analyzed 3-4 weeks after the generation of the culture by surface-stained with monoclonal antibodies to: CD3, CD4, CD8, CD19, CD56, CD27, CD28, CD45RO, and CD62L (Becton Dickinson B D, Franklin Lakes, N.J.). Cells were washed once with PBS supplemented with 2% FBS, pelleted, and antibodies added in saturating amounts (10 ul). To detect CAR-transduced cells, T cells were stained with a monoclonal antibody Fc-specific cyanine-Cy5-conjugated antibody (Jackson Immuno Research Laboratories, Inc., West Grove, Pa.), which recognizes the IgG1-CH2CH3 component of the receptor. Cells were analyzed using a Gallios Flow cytometer and the data analyzed using Kaluza software (Beckman Coulter Inc., Brea, Calif.).
It is illustrated therein that one can modulate the intensity of CAR-MUC1 expression on effector cells when the effector cells are cultured with decitabine.

Nc1ncn([C@H]2C[C@H](O)[C@@H](CO)O2)c(=O)n1 [decitabine, 5-Aza-2′-deoxycytidine]
intensity of MUC1 expression [1]: 26.0 relative mean fluorescence intensity
re-sensitization of resistant tumor cells to CAR-MUC1 T cell killing [2]: re-sensitizing previously resistant tumor cells to CAR-MUC1 T cell killing
CAR-MUC1 expression on effector cells [3]: increase in expression
